According to US20200297671A1, “METHODS OF AVOIDING EXCIPIENT-BASED ADVERSE EFFECTS AND OF EXPLOITING BIOLOGICAL PROPERTIES OF GRAS COMPOUNDS” (MASSACHUSETTS INSTITUTE OF TECHNOLOGY, priority 2019, published 2020):

Legend:
[1] = tested on: patients; details: cited from earlier work
[2] = tested on: mice; details: cited from earlier work
[3] = tested on: UGT; assay: UGT tissue assay (liver lysate); type: biochemical, porcine; details: pig liver lysate, 500 μM
Protocol: Compound mixtures were prepared at 500 μM. Freshly extracted porcine liver was homogenized using a tissue homogenizer. The sample was separated using centrifugation and the supernatant was used as a test sample. Two independent experiments with two different liver extracts were performed as described for the microsomes.

[4] = target: T1, Human UGT2B7 (Homo sapiens, UniProt P16662); assay: UGT2B7 inhibition assay (Corning Supersomes, Biovision UGT activity kit); type: biochemical
T1 construct: purchased Corning
T1 sequence (P16662 24-529): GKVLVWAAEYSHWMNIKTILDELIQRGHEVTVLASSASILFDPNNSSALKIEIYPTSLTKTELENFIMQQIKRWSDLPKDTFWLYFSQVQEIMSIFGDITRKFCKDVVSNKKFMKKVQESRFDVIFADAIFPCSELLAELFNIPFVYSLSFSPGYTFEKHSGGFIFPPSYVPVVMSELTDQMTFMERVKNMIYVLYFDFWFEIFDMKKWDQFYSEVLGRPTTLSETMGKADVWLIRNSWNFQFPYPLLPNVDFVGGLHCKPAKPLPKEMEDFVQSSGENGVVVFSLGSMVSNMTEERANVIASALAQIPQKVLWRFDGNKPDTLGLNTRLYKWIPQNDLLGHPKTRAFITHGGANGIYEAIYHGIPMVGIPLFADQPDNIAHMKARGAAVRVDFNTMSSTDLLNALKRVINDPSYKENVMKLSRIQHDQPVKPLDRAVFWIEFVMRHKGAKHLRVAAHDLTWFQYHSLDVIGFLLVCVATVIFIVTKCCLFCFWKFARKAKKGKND
Protocol: UGT2B7 inhibition was measured using Corning® Supersomes™ Human UGT2B7. The inhibition of UGT2B7 was measured using the commercially-available Biovision UGT activity screening kit as previously described. Briefly, 0.1 mg/mL microsomes were mixed with Alamethicin for pore-formation and a proprietary UGT ligand that loses fluorescence after glucuronidation (Biovision). Plates were incubated for 5 minutes at RT and protected from light before the enzymatic reaction was initiated through the addition of UDPGA. […] Diclofenac (1 mM in PBS 1% DMSO) served as a positive inhibitor control.

[5] = tested on: P-gp; assay: P-gp in vivo experiment (warfarin plasma concentration); design: species or system BALB/c mice; details: mice
Protocol: A suspension of vitamin A palmitate in 10% DMSO PBS or 10% DMSO PBS buffer control were administered orally to five female BALB/c mice at a dose of 500 mg/kg 15 minutes prior to treatment. Mice were then treated orally with warfarin 20 mg/kg. Blood was sampled after 30 minutes of oral warfarin administration. Warfarin plasma concentrations were determined using LCMS.

Structure (SMILES): OC[C@H]1O[C@@H](O[C@H]2[C@H](O)[C@@H](O)C(O)O[C@@H]2CO)[C@H](O)[C@@H](O)[C@H]1O (some centres unmarked) [lactose]
- amount affecting individuals ([1]; severe cases of lactose intolerance): less than 200 mg

Structure (SMILES): CC(C)C1=CC2=CC[C@@H]3[C@](C)(CCC[C@@]3(C)C(=O)O)[C@H]2CC1 [abietic acid]
- toxicity in mice [2]: harmless in mice
- inhibition of UGT activity ex vivo [3]: successfully inhibited UGT activity
- inhibition of UGT2B7 activity in microsomes (FIG. 18) [4]: can inhibit UGT2B7 activity
- IC50 ([4]; functional in vitro assay, microsomes, 30 minutes): 2200 ± 300 nM

Structure (SMILES): CCCCCCCCCCCCCCCC(=O)OC/C=C(C)/C=C/C=C(C)/C=C/C1=C(C)CCCC1(C)C [vitamin A palmitate]
- systemic warfarin after oral delivery (FIG. 23) [5]: induces an increase of systemic warfarin
- increase of oral absorption of warfarin ([5]; 500 mg/kg oral 15 minutes before warfarin 20 mg/kg oral, blood after 30 minutes): 31%

Structure (SMILES): O=C([O-])C1=NN(c2ccc(S(=O)(=O)[O-])cc2)C(=O)C1N=Nc1ccc(S(=O)(=O)[O-])cc1.[Na+].[Na+].[Na+] (centres unmarked) [tartrazine]
- patients with adverse symptoms associated with tartrazine content ([1]; tartrazine-containing versus tartrazine-free medications, all patients): about 4%
